# Key:
# human AML cells = experiment: Flow cytometry of CD34/CD38 and LRC marker proteins (DRD2, SLC2A2, FASLG, FUT3) in human AML cells from xenograft BM; assay type: in vivo, human AML cells in mice
# Procedure: Immunophenotyping for human hematopoietic cell surface markers was carried out using the following antibodies: V450-conjugated anti-CD45 (1:100; 2D1), APC-conjugated anti-CD33 (1:300; WM-33), PE-conjugated anti-CD34 (1:200; 581), FITC- or PE-conjugated anti-CD38 (1:100 or 1:500; HB7), FITC-conjugated anti-CD19 (1:100; HIB19), and APC-conjugated anti-CD3 (1:100; UCHT1; all from BD). In order to evaluate candidates from the LRC gene signature at the protein level, gene targets were identified with available commercial antibodies that had been validated for flow cytometry. Directly conjugated antibodies were used to detect human SLC2A2 (Alexa fluor 488-conjugated; 1:100; 199017; Novus Biologicals) and FASLG (FITC-conjugated; 1:100; SB93A; Thermo Fisher). Additionally, mouse anti-human primary antibodies that recognize human DRD2 (1:100; B-10; Santa Cruz) or FUT3 (1:100, F3, Thermo Fisher) were used, followed by incubation with an Alexa fluor 647- or 555-conjugated donkey anti-mouse secondary antibody ([…]; Thermo Fisher). In these cases of indirect staining, cells were first blocked with donkey serum (Jackson ImmunoResearch Laboratories) plus human FC block (eBioscience). […] When appropriate, fluorescence minus one and secondary antibody controls were used to optimize gating strategies for target cell populations. […]
# [1] = tested on: human AML cells (CD45+CD33+); experiment: Leukemic chimerism and growth rate in BM of AML-xenografted mice (FACS, serial BM aspirates); settings: for Leukemic chimerism levels following DRD2 antagonist therapy: mean ± SEM
# human AML progenitors = experiment: CFU (methylcellulose) progenitor assay of human AML cells purified from treated xenograft BM
# [2] = Treatment-related mortality on AraC dose intensification in AML-xenografted mice; assay type: in vivo, mouse; settings: AraC 100 mg/kg, 5 consecutive days
# From the text: This more aggressive regime produced unacceptable treatment-related mortality rates of 60%, which was not balanced by any therapeutic benefit in the few mice that survived.
# [3] = tested on: human AML leukemia initiating cells (LSCs); experiment: Serial transplantation (limiting dilution) leukemia-initiating cell / LSC assay in secondary recipient mice; assay type: in vivo, human AML cells in NOD/SCID or NSG mice
# From the text: The threshold for engraftment detection was set at ≥0.1% human chimerism.
# [4] = tested on: healthy human hematopoietic cells (CD45+); experiment: Healthy human hematopoietic chimerism and growth rate in xenografted mice; settings: healthy human grafts in mice
compound,measurement,setting,value
"Nc1ccn([C@@H]2O[C@H](CO)[C@@H](O)[C@@H]2O)c(=O)n1 [AraC, Cytarabine]",frequencies of primitive CD34+ and CD34+CD38− cells within residual AML populations,"human AML cells; AraC 5 consecutive days, xenograft BM 24-72 hr after final dose",strongly reduced
same,recipient mice with persisting residual disease,"[1]; AML patient #13 xenografts, AraC alone, 9 days after final AraC dose",50%
same,leukemic growth after AraC vs vehicle-treated controls,"[1]; AML xenografts, kinetic modeling of serial BM aspirates",accelerated leukemic growth
same,functional progenitors in residual leukemic populations (CFU),"human AML progenitors; AML xenografts, 48 hr after AraC withdrawal",depleted
same,treatment-related mortality rate,[2],60%
same,functional LSCs (serial LIC transplantation),"[3]; AML xenografts, 48 hr after final AraC dose",suppressed
same,#Engrafted mice,"[3]; AML#2, +AraC, cell dose 1 × 10^6, cells transplanted 48 hr after final AraC dose",0/4
same,#Engrafted mice,"[3]; AML#2, +AraC, cell dose 2 × 10^5, cells transplanted 48 hr after final AraC dose",0/4
same,#Engrafted mice,"[3]; AML#3, +AraC, cell dose 2 × 10^5, cells transplanted 48 hr after final AraC dose",1/4
same,#Engrafted mice,"[3]; AML#3, +AraC, cell dose 3 × 10^4, cells transplanted 48 hr after final AraC dose",0/3
same,re-growth rates of healthy human hematopoiesis after AraC cytoreduction,[4],rates matching those of vehicle-treated controls
"CSc1ccc2c(c1)N(CCC1CCCCN1C)c1ccccc1S2 (stereo not shown) [DRD2 antagonist, thioridazine]",DRD2 protein expression in human leukemic cells from xenograft BM,"human AML cells; DRD2 antagonist with AraC, LRC stage",loss of DRD2 protein expression
same,time to overt relapse,"[1]; AML #3 xenografts, AraC plus DRD2 antagonist vs AraC alone, relapse set at 20% leukemic chimerism, estimated from growth rates",nearly doubled
same,Leukemic chimerism levels following DRD2 antagonist therapy,"[1]; AML #5, LRCs (in combination with AraC)",1.4 ± 0.3
same,Leukemic chimerism levels following DRD2 antagonist therapy,"[1]; AML #5, Therapy-naive (single agent, no AraC)",12.4 ± 2.2
same,Leukemic chimerism levels following DRD2 antagonist therapy,"[1]; AML #10, LRCs (in combination with AraC)",16.9 ± 8.7
same,Leukemic chimerism levels following DRD2 antagonist therapy,"[1]; AML #11, LRCs (in combination with AraC)",1.4 ± 1.4
same,leukemic growth rates after AraC,"[1]; AML Patient #3 xenografts, DRD2 antagonist plus AraC vs AraC alone",successfully disrupted
same,recipients achieving disease-free status,"[1]; AML patient #13 xenografts, DRD2 antagonist added to AraC",100%
same,overall cytoreductive activity of AraC (leukemic chimerism),[1]; in vivo delivery of DRD2 antagonist with AraC,did not improve
same,effect on progenitors of regenerating LRCs (CFU),"human AML progenitors; DRD2 antagonist in combination with AraC, 9 days after last AraC dose",profound effects
same,effect on AML progenitors arising from therapy-naive LSCs (CFU),"human AML progenitors; DRD2 antagonist single agent, 21-day regimen, AML xenografts",moderately affected
same,LIC content of therapy-naïve AML,"[3]; DRD2 antagonist single agent, AML #5, serial transplantation",did not impact
same,LIC activity of AraC-exposed LRCs,"[3]; DRD2 antagonist together with AraC, AML #5, serial transplantation 9 days post-AraC",complete loss of LIC activity
same,disease regeneration potential (secondary LIC assays and progenitor assays),"[3]; DRD2 antagonist with AraC, three additional AML patient samples",reproducibly blocked
